Experimental findings from publication PMC2671563 (PLoS Biology, 2009) are described below.

In experiment [1] the target is T1, mS100A9 and mRAGE/hFc (Mus musculus, UniProt P31725).
T1 construct: purchased R&D Systems (mRAGE/Fc); S100A9 made in house
T1 sequence (P31725 2-113 limits assumed): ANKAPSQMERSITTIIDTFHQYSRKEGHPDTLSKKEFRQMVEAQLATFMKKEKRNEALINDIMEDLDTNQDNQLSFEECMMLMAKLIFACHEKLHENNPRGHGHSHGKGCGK
The experiment is described as follows: SPR: inhibition of mouse S100A9 binding to immobilised mouse RAGE. As to conditions: read-out: S100A9 binding IC50, mS100A9 RAGE; Table S1. As to the method: (§1) The SPR analysis was carried out with the Biacore 3000 system (GE Healthcare). Sensor chips, amine coupling kit, immobilization and running buffers, and regeneration solutions were obtained from GE Healthcare. Working solutions of all reagents used for Biacore analysis were prepared in 0.01 M Hepes, 0.15 M NaCl (pH 7.4) containing 0.005% v/v Surfactant P-20 (HBS-P; GE Healthcare) by buffer exchange on Fast Protein Desalting Micro-Spin Columns from Pierce. ABR-215757 was immobilised onto a CM5 chip through an amino-linker (ABR-224649). […] Activity of ligands after immobilisation was tested by injecting specific antibodies (unpublished data). In some experiments, S100A9 was immobilized either by random amine coupling or with a known orientation (i.e., by sulhydryl group conjugation to the only cysteine in S100A9 at position 3).
(§2) Binding to the various surfaces was performed by injecting the analyte at a flow rate of 30 μl/min in a physiological buffer (HBS-P) containing 1 mM Ca^2+ and 10 μM Zn^2+ as proposed for S100A8/9 by Robinson et al.. A typical analysis cycle consists of: (1) pumping running buffer for 1 min to obtain a stable baseline; (2) injection of sample for an appropriate period of time (association); (3) pumping running buffer for 2.5 min (dissociation); (4) injection of a short pulse (30 s) of 15 μl 10 mM glycine-HCl (pH 2.0) (regeneration); and (5) pumping running buffer for 2 min (stabilisation after regeneration) at a flow rate of 30 μl/min. […] In one experiment, S100A9 was injected into a buffer with a fixed Ca^2+ concentration (1 mM) and Zn^2+ in the range 0–50 μM. In a second experiment, Ca^2+ was varied from 0–2 mM at a fixed Zn^2+ concentration (10 μM). In subsequent analyses, regeneration was carried out under more mild conditions, i.e., by injecting 30 μl of HBS-P containing 3 mM EDTA (HBS-EP; GE Healthcare) for 60 s, to prolong the lifespan of the chip.
(§3) Compounds were also injected over the immobilised surfaces in the absence of S100A9 to exclude, or make possible correction for, any direct binding of compound to the surface.
(§4) Evaluation was carried out using BIAevaluation Software version 3.2 (GE Healthcare). The response at steady-state was obtained by fit of sensorgrams to standard binding models, where appropriate, or calculated as responses at late association or early dissociation phase using the Steady state affinity function in BIAevaluation. Affinity was determined from kinetic analysis (on- and off-rates) or as the apparent affinity after plotting responses versus concentration of analyte in a saturation curve. In the inhibition assay format, the competitor concentration yielding 50% inhibition (IC50) was calculated by fitting data to a one-site competition model in GraphPad Prism.
In general terms: Surface plasmon resonance follows binding to a sensor surface in real time, without labels.

In experiment [2] the target is T2, human S100A9 binding to human TLR4/MD2 (Homo sapiens, UniProt P06702).
T2 construct: purchased R&D Systems (TLR4/MD-2 complex); S100A9 made in house
T2 sequence (P06702 1-114): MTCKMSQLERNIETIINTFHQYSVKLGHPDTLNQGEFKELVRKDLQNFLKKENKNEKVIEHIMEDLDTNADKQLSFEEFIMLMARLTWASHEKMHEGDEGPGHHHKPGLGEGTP
Description: SPR: inhibition of human S100A9 binding to immobilised human TLR4/MD2. As to the method: as §1, §2, §3, §4

In experiment [3] the target is T3, mS100A9 and mLPS-Trap (Mus musculus, UniProt P31725).
T3 sequence (P31725 2-113 limits assumed): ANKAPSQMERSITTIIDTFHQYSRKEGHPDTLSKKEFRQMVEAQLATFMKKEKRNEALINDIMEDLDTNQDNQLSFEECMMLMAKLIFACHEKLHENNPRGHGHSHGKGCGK
The experiment is described as follows: SPR: inhibition of mouse S100A9 binding to immobilised mouse TLR4/MD2 fusion protein (mLPS-Trap). The settings on record: Table S1. As to the method:
as §1, §2, §3, §4

The target in experiment [4] is T4, mS100A8/A9 and mLPS-Trap (Mus musculus, UniProt P31725).
T4 sequence (P31725 2-113 limits assumed): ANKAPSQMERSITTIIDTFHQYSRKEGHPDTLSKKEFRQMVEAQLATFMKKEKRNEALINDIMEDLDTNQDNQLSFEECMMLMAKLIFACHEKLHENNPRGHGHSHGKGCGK
Description: SPR: inhibition of mouse S100A8/A9 binding to mLPS-Trap. As to conditions: Table S1; read-out: S100A8-9 binding IC50, mS100A8/A9 TLR4. As for the experimental part:
as §1, §2, §3, §4

The target of experiment [5] is T5, mS100A8/A9 and mRAGE (Mus musculus, UniProt P31725).
T5 construct: purchased R&D Systems (mRAGE/Fc); S100A8/A9 made in house
T5 sequence (P31725 2-113 limits assumed): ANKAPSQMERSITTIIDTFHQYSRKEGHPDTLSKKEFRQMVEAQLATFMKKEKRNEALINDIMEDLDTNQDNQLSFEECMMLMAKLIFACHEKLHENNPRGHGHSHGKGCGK
T5 sequence (P27005 2-89 partner limits assumed): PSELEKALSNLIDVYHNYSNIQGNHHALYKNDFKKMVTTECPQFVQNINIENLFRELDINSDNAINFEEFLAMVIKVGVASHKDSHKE
The experiment is described as follows: SPR: inhibition of mouse S100A8/A9 binding to mouse RAGE. As to conditions: read-out: S100A8-9 binding IC50, mS100A8/A9 RAGE; Table S1. As to the method: as §1, §2, §3, §4

Experiment [6] has as its target T6, mS100A9 (Mus musculus, UniProt P31725).
T6 construct: made in house; host or cells: Escherichia coli (or purified from granulocytes)
T6 sequence (P31725 1-113): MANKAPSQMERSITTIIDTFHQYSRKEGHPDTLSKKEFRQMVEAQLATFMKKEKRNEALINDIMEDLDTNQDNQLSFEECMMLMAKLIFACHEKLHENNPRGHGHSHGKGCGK
Description: SPR: inhibition of mouse S100A9 binding to immobilised ABR-224649. The settings on record: Table S1. As for the experimental part: as §1, §2, §3, §4

Experiment [7] concerns the target T7, human S100A9 binding to human RAGE (Homo sapiens, UniProt P06702).
T7 construct: purchased R&D Systems (RAGE/Fc); S100A9 made in house
T7 sequence (P06702 1-114): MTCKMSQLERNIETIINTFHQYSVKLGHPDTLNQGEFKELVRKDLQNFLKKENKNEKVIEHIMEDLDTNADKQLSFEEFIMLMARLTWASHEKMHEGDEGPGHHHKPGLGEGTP
Description: SPR: inhibition of human S100A9 binding to immobilised human RAGE. As to conditions: read-out: S100A9 binding IC50, hS100A9 RAGE; Table S1. As to the method: as §1, §2, §3, §4

In experiment [8] the test system is aEAE development in SLJ/N mice. Description: acute experimental autoimmune encephalomyelitis (aEAE) in mice. Type of experiment: in vivo, mouse. From the text: A training set of five quinoline derivatives with structural diversification performed at position 5 of the quinoline ring system was used for the SAR. PCA was used to uncover any relationship between the binding activities of the quinoline derivatives at the S100 proteins and the inhibitory effect of these derivatives in the aEAE model. PLS was then used to model the relationship between the physiochemical descriptors used to characterize the compounds and their biological responses. […] All variables were mean centred and scaled to unit variance.

Experiment [9] deals with T8, human S100A9 (Homo sapiens, UniProt P06702).
T8 construct: made in house; host or cells: Escherichia coli (or purified from granulocytes)
T8 sequence (P06702 1-114): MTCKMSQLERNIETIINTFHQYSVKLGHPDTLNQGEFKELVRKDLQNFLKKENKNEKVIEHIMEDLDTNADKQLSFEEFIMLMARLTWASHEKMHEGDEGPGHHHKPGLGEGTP
The experiment is described as follows: SPR: human S100A9 binding to immobilised ABR-224649 (Q compound), direct binding and displacement. As for the experimental part:
as §1, §2, §3, §4

The target in experiment [10] is T9, hS100A9 (Homo sapiens, UniProt P06702).
T9 construct: made in house; host or cells: Escherichia coli (or purified from granulocytes)
T9 sequence (P06702 1-114): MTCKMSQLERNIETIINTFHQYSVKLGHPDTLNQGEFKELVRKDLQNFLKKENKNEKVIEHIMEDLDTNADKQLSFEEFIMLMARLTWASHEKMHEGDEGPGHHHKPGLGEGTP
The experiment is described as follows: SPR: analytes injected over immobilised hS100A9. Type of experiment: binding. As to the method:
as §1
(B) Left: 100 nM TLR4/MD2 or MD2 injected over amino-coupled hS100A9. […] Fab 43/8 was injected at 50–200 nM to verify activity of immobilized hS100A9 (right). […] (482 KB PDF) Click here for additional data file.

Experiment [11] deals with T10, mouse RAGE/Fc (mouse, UniProt Q62151-1 23-340).
T10 construct: RAGE, mouse; also called mRAGE; mRAGE/hFc; source: bought: R&D Systems (carrier-free recombinant)
Description: SPR; 50 and 100 nM mouse S100A9, or 100 nM mouse S100A8/A9, injected (3 min at 30 ul/min) over mouse RAGE/Fc or mLPS-Trap coupled to the sensor chip. As to conditions: both partners purified.

Experiment [12] concerns the target T11, recombinant human RAGE/Fc (human, UniProt Q15109 23-342).
T11 construct: RAGE (receptor for advanced glycation end products), human; human IgG1 Fc was used as the control for the Fc part; also called hRAGE; rhRAGE/Fc; source: bought: R&D Systems (carrier-free recombinant)
The experiment is described as follows: SPR; S100 proteins injected (100 nM, or a range of concentrations; 30 ul/min) over human RAGE/Fc immobilised by amine coupling (~3,000 RU); HBS-P pH 7.4 with 1 mM Ca2+ and 10 uM Zn2+; fit to a 1:1 model with mass transfer; half-maximal binding from responses at late association (apparent). As to conditions: both partners purified.

Experiment [13] deals with T12, human TLR4/MD-2 complex (human, UniProt O00206 24-631; Q9Y6Y9 19-160).
T12 construct: Toll-like receptor 4, human; MD-2, human; Soluble recombinant complex; also called hTLR4/MD-2; hTLR4/MD2; source: bought: R&D Systems (carrier-free recombinant)
Description: SPR; S100 proteins injected (100 nM, or a range of concentrations; 30 ul/min) over human TLR4/MD2 immobilised by amine coupling (~3,000 RU); HBS-P pH 7.4 with 1 mM Ca2+ and 10 uM Zn2+; fit to a 1:1 model with mass transfer; half-maximal binding from responses at late association (apparent). The settings on record: both partners purified.

T10 sequence (Q62151 23-340): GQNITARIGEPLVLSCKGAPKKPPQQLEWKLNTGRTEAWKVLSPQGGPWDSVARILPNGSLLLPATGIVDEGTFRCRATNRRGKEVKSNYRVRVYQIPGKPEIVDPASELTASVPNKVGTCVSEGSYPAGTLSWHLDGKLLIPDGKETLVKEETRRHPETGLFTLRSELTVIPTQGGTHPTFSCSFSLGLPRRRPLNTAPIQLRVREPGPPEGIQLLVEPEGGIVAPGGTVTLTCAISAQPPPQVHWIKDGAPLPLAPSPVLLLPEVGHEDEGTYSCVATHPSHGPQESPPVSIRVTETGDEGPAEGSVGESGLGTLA
T11 sequence (Q15109 23-342): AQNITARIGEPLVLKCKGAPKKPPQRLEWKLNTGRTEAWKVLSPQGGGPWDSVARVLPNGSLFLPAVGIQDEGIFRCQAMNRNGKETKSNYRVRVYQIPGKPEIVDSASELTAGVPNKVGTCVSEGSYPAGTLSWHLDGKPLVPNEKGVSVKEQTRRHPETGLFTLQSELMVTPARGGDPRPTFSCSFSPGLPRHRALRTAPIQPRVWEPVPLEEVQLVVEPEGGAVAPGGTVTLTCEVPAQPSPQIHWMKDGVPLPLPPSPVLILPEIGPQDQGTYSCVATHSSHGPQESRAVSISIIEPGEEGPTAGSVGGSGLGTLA
T12 sequence (O00206 24-631, chain 1 of 2): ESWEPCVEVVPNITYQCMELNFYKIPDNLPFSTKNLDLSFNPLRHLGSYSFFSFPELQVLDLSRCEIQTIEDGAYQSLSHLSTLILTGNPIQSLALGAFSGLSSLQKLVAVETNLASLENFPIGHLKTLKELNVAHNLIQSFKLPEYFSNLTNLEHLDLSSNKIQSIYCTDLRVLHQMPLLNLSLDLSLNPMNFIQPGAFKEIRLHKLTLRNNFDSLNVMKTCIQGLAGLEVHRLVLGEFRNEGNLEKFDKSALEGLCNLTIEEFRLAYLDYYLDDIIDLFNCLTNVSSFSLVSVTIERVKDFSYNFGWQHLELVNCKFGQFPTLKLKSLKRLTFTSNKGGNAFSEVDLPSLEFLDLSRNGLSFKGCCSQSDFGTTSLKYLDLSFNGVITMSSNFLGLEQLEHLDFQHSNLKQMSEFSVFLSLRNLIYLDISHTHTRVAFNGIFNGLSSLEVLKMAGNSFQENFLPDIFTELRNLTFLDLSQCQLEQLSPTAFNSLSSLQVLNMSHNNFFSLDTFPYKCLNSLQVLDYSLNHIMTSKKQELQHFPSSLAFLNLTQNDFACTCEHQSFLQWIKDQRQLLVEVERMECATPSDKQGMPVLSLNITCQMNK
T12 sequence (Q9Y6Y9 19-160, chain 2 of 2): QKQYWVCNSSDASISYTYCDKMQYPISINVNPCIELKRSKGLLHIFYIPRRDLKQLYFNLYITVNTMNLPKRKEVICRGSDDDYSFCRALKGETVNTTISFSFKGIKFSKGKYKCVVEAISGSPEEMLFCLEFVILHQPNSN

In the case of `CCN(C(=O)c1c(O)c2c(SC)cccc2n(C)c1=O)c1ccccc1` [ABR-215628], the IC50 in experiment [1] turned out to be 447 µM; in experiment [2] (Table S1, read-out: S100A9 binding IC50, hS100A9 TLR4), 154 µM; in [3] it was 780 µM; in [4], 257 µM; in experiment [5], 174 µM; in [6], 906 µM. In experiment [7], the IC50 is 135 µM. For the same molecule, the “aEAE Inhibition ED50” value in experiment [8] is reported as 0.20 mg/kg.

Regarding `CCc1cccc2c1c(O)c(C(=O)N(CCOCCN)c1ccccc1)c(=O)n2C` [ABR-224649], the “ability to displace S100A9 binding to immobilised ABR-224649” value in experiment [9] (coinjected with S100A9, unpublished data) is “very similar ability to displace binding as ABR-215757”. Also, the Kd in experiment [9] (steady-state responses vs 25–200 nM S100A9, 1 mM Ca2+, 10 μM Zn2+, read-out: half-maximal binding of S100A9 to immobilised ABR-224649) was 0.085 µM.

In the case of rhMD-2: recombinant human MD-2, the “displacement of S100A9 binding to immobilised hTLR4/MD2” value in experiment [2] (200 and 400 nM, unpublished data) is “No displacement”. The “binding to immobilised S100A9” value in [10] was “did not”.

B1: mouse S100A9 (natural protein, UniProt P31725 1-113, looked up)
chain: MANKAPSQMERSITTIIDTFHQYSRKEGHPDTLSKKEFRQMVEAQLATFMKKEKRNEALINDIMEDLDTNQDNQLSFEECMMLMAKLIFACHEKLHENNPRGHGHSHGKGCGK
notes: S100A9, mouse; called homodimeric; also called mS100A9; murine S100A9; source: either produced recombinantly in Escherichia coli or purified from granulocytes
For the molecule B1, the binding result in experiment [11] is given as “binds”.

B2: mouse S100A8/A9 heterodimer (complex)
chain 1: MPSELEKALSNLIDVYHNYSNIQGNHHALYKNDFKKMVTTECPQFVQNINIENLFRELDINSDNAINFEEFLAMVIKVGVASHKDSHKE
chain 2: MANKAPSQMERSITTIIDTFHQYSRKEGHPDTLSKKEFRQMVEAQLATFMKKEKRNEALINDIMEDLDTNQDNQLSFEECMMLMAKLIFACHEKLHENNPRGHGHSHGKGCGK
notes: S100A8, mouse; S100A9, mouse; also called mS100A8/A9; murine S100A8/A9; source: either produced recombinantly in Escherichia coli or purified from granulocytes
For the molecule B2, the binding result in [11] was “binds”.

B3: human S100A8/A9 heterodimer (complex)
chain 1: MLTELEKALNSIIDVYHKYSLIKGNFHAVYRDDLKKLLETECPQYIRKKGADVWFKELDINTDGAVNFQEFLILVIKMGVAAHKKSHEESHKE
chain 2: MTCKMSQLERNIETIINTFHQYSVKLGHPDTLNQGEFKELVRKDLQNFLKKENKNEKVIEHIMEDLDTNADKQLSFEEFIMLMARLTWASHEKMHEGDEGPGHHHKPGLGEGTP
notes: S100A8, human; S100A9, human; also called hS100A8/9; S100A8/A9 complex; source: either produced recombinantly in Escherichia coli or purified from granulocytes
Consider B3, for which the Kd in [12] was 0.0094 µM; in [13] it was 0.0038 µM.
